Measurements from patent US20230293526A1, “METHOD FOR TREATING CANCER WITH A REVERSE TRANSCRIPTASE INHIBITOR” (PrimeFour Therapeutics, Inc., priority 2020, published 2023).

Tests used:
Assay in all cases: Cell proliferation Ex.3
Format in all cases: cell-based
786O = details: Homo sapiens
A375 = details: Homo sapiens, A-375
A549 = details: Homo sapiens
ACHN = details: Homo sapiens
C33A = details: Homo sapiens, C-33-A
COLO678 = details: Homo sapiens, COLO-678
HCT15 = details: Homo sapiens, HCT-15
HS578T = details: Homo sapiens, Hs-578T
HT1080 = details: Homo sapiens, HT-1080
HeLa = details: Homo sapiens
JIMT1 = details: Homo sapiens, JIMT-1
L363 = details: Homo sapiens, L-363
LOVO = details: Homo sapiens
MG63 = details: Homo sapiens, MG-63
MT3 = details: MT-3
MV4-11 = details: Homo sapiens
NCI-H292 = details: Homo sapiens
NCIH358M = details: NCI-H358M
OVCAR3 = details: Homo sapiens, OVCAR-3
PC3 = details: Homo sapiens, PC-3
How it was run: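 […] exposure, 37 °C, 5%/10% CO2 by medium; cells pre-seeded overnight. Read-out: CellTiterGlo luminescence, ~1 h post-reagent. Output: % viability relative to control wells.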

PLCPRF5 = details: Homo sapiens, PLC-PRF-5
RDES = details: RD-ES
SAOS2 = details: Homo sapiens, SAOS-2
SKLMS1 = details: Homo sapiens, SK-LMS-1
SKOV3 = details: Homo sapiens, SK-OV-3
SU-DHL-10 = details: Homo sapiens, SU-DHL10

- IC50 (A375; A375, 72 h): > 10 µM
- IC50 (A375; A375, 120 h): > 10 µM
- IC50 (A375; A375, 168 h): > 10 µM
- IC50 (A549; A549, 72 h): > 10 µM
- IC50 (A549; A549, 120 h): > 10 µM
- IC50 (A549; A549, 168 h): > 10 µM
- IC50 (ACHN; 72 h): > 10 µM
- IC50 (ACHN; 120 h): 0.91 µM
- IC50 (ACHN; 168 h): 0.94 µM
- IC50 (COLO678; COLO678, 72 h): > 10 µM
- IC50 (COLO678; COLO678, 120 h): > 10 µM
- IC50 (COLO678; COLO678, 168 h): > 10 µM
- IC50 (HCT15; HCT15, 72 h): > 10 µM
- IC50 (HCT15; HCT15, 120 h): > 10 µM
- IC50 (HCT15; HCT15, 168 h): > 10 µM
- IC50 (HT1080; HT1080, 72 h): > 10 µM
- IC50 (HT1080; HT1080, 120 h): > 10 µM
- IC50 (HT1080; HT1080, 168 h): > 10 µM
- IC50 (HeLa; 72 h): > 10 µM
- IC50 (HeLa; 120 h): > 10 µM
- IC50 (HeLa; 168 h): > 10 µM
- IC50 (LOVO; 72 h): > 10 µM
- IC50 (LOVO; 120 h): 3.28 µM
- IC50 (LOVO; 168 h): 2.06 µM
- IC50 (MV4-11; MV4-11, 72 h): 2.48 µM
- IC50 (MV4-11; MV4-11, 120 h): 0.251 µM
- IC50 (MV4-11; MV4-11, 168 h): 1.72 µM
- IC50 (NCI-H292; NCI-H292, 72 h): > 10 µM
- IC50 (NCI-H292; NCI-H292, 120 h): > 10 µM
- IC50 (NCI-H292; NCI-H292, 168 h): > 10 µM
- IC50 (OVCAR3; OVCAR3, 72 h): > 10 µM
- IC50 (OVCAR3; OVCAR3, 120 h): > 10 µM
- IC50 (OVCAR3; OVCAR3, 168 h): > 10 µM
- IC50 (PC3; PC3, 72 h): > 10 µM
- IC50 (PC3; PC3, 120 h): > 10 µM
- IC50 (PC3; PC3, 168 h): > 10 µM
- IC50 (SKLMS1; SKLMS1, 72 h): > 10 µM
- IC50 (SKLMS1; SKLMS1, 120 h): > 10 µM
- IC50 (SKLMS1; SKLMS1, 168 h): > 10 µM
- IC50 (SKOV3; SKOV3, 72 h): > 10 µM
- IC50 (SKOV3; SKOV3, 120 h): > 10 µM
- IC50 (SKOV3; SKOV3, 168 h): > 10 µM
- IC50 (SU-DHL-10; SU-DHL-10, 72 h): 0.14 µM
- IC50 (SU-DHL-10; SU-DHL-10, 120 h): 61.5 µM
- IC50 (SU-DHL-10; SU-DHL-10, 168 h): 3.86 µM
Structure (SMILES): C#C[C@]1(CO)O[C@@H](n2cc(F)c(N)nc2=O)C[C@@H]1O [compound 9]
- IC50 (786O; 786-0, 72 h): > 10 µM
- IC50 (786O; 786-0, 120 h): > 10 µM
- IC50 (786O; 786-0, 168 h): > 10 µM
- IC50 (C33A; 72 h): > 10 µM
- IC50 (C33A; 120 h): 2.93 µM
- IC50 (C33A; 168 h): 3.07 µM
- IC50 (HS578T; 72 h): > 10 µM
- IC50 (HS578T; 120 h): > 10 µM
- IC50 (HS578T; 168 h): > 10 µM
- IC50 (JIMT1; JIMT1, 72 h): > 10 µM
- IC50 (JIMT1; JIMT1, 120 h): > 10 µM
- IC50 (JIMT1; JIMT1, 168 h): > 10 µM
- IC50 (L363; L363, 72 h): > 10 µM
- IC50 (L363; L363, 120 h): > 10 µM
- IC50 (L363; L363, 168 h): > 10 µM
- IC50 (MG63; MG63, 72 h): > 10 µM
- IC50 (MG63; MG63, 120 h): > 10 µM
- IC50 (MG63; MG63, 168 h): > 10 µM
- IC50 (MT3; MT3, 72 h): > 10 µM
- IC50 (MT3; MT3, 120 h): 3.04 µM
- IC50 (MT3; MT3, 168 h): > 10 µM
- IC50 (NCIH358M; 72 h): > 10 µM
- IC50 (NCIH358M; 120 h): > 10 µM
- IC50 (NCIH358M; 168 h): 0.67 µM
- IC50 (PLCPRF5; PLCPRF5, 72 h): > 10 µM
- IC50 (PLCPRF5; PLCPRF5, 120 h): > 10 µM
- IC50 (PLCPRF5; PLCPRF5, 168 h): > 10 µM
- IC50 (RDES; 72 h): > 10 µM
- IC50 (RDES; 120 h): > 10 µM
- IC50 (RDES; 168 h): > 10 µM
- IC50 (SAOS2; SAOS2, 72 h): > 10 µM
- IC50 (SAOS2; SAOS2, 120 h): > 10 µM
- IC50 (SAOS2; SAOS2, 168 h): > 10 µM
